Measured values reported in ChEMBL document CHEMBL2074287, “Modulation of digoxin transport across Caco-2 cell monolayers by citrus fruit juices: lime, lemon, grapefruit, and pummelo” (Pharm Res, 2003).

Target: ATP-dependent translocase ABCB1 (Homo sapiens, UniProt P08183)
Assay: TP_TRANSPORTER: transepithelial transport of digoxin (Digoxin: 30nM) in Caco-2 cells
Format: functional, cell-based

ATP-dependent translocase ABCB1, sequence (P08183 whole entry): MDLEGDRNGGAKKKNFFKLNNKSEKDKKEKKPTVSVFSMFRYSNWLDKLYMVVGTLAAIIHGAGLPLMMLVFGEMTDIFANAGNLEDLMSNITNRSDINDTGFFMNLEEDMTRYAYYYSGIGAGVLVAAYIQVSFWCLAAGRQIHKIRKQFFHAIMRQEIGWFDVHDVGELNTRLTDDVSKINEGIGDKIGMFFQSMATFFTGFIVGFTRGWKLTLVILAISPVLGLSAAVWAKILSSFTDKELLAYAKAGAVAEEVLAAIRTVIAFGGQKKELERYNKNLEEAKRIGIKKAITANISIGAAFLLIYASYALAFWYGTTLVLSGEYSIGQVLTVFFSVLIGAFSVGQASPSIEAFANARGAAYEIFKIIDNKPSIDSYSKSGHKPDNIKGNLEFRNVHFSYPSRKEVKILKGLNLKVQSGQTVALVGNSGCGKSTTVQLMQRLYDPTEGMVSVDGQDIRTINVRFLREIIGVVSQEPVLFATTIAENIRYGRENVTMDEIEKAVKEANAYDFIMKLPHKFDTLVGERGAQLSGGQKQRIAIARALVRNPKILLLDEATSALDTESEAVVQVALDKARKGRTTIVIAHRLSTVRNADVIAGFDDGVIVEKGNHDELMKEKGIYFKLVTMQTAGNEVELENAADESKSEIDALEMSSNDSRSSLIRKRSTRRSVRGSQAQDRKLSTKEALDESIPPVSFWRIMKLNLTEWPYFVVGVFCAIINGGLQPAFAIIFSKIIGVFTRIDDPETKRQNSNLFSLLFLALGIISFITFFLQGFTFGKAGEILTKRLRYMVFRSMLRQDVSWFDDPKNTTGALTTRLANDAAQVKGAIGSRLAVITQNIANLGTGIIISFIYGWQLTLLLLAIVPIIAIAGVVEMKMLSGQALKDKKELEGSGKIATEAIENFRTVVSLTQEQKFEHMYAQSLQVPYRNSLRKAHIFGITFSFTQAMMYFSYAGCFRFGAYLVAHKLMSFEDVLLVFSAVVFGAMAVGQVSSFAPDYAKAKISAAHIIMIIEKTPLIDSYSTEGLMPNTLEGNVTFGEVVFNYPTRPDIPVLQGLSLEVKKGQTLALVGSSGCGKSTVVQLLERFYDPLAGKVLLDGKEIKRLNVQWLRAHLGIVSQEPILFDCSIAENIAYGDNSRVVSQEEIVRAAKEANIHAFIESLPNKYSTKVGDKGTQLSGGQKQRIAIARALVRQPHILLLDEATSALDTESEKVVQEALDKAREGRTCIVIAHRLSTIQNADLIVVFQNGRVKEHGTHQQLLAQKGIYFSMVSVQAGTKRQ

Substance | Activity
GRAPEFRUIT JUICE | inhibitor [+]
PUMMELO JUICE | inhibitor [+]
